Earlier results, collected in article PMC7094298 (Febs Letters, 2009).
Entries after “also recorded” stand apart in the source; their conditions may differ.

Key:
[1] = molecular target: SARS-CoV 3CLpro (Severe acute respiratory syndrome coronavirus, UniProt P0C6X7)
[2] = test system: RV and other picornaviral 3Cpro

CCOC(=O)/C=C/[C@H](C[C@@H]1CCNC1=O)NC(=O)[C@@H](CC(=O)[C@@H](NC(=O)c1cc(C)on1)C(C)C)Cc1ccc(F)cc1 [AG7088]
inhibition of SARS-CoV 3CLpro [1]: did not inhibit; also recorded: failed to inhibit | inhibition of RV and other picornaviral 3Cpro [2]: potent inhibitor
